Assay results as given in ChEMBL document CHEMBL2095176, “GSK Tuberculosis Screening Data”.
Values after ≈ are worked out from the molar mass of the structure shown.

Test system: Mycobacterium tuberculosis variant bovis BCG
Assay: microbe, parasite or virus in culture
Type: functional

Structure (SMILES)	MIC90 [µM]
O=C(c1ccc(-c2cccc(OCCN3CCC(c4ccccc4)CC3)c2)cc1)N1CCCC1	4.3 (≈ 1.95 µg/mL)
c1ccc(-c2ccc(CNCCn3ccnc3-c3ccccc3)cc2)cc1	9.3 (≈ 3.29 µg/mL)
COc1ccc(N(C(=O)CNc2ccccc2Nc2ccc(Cl)cc2)C(C)C)cc1	2.6 (≈ 1.1 µg/mL)
O=C(/C=C/c1ccccc1)N1CCN(Cc2cccc(OCc3ccccc3)c2)CC1	8.3 (≈ 3.42 µg/mL)
c1csc(Cc2nn3c(-c4n[nH]c5c4CCC5)nnc3s2)c1	3.2 (≈ 1.05 µg/mL)
COc1ccc(-c2nnc(NC(=O)c3ccc(Br)s3)o2)cc1	7.6 (≈ 2.89 µg/mL)
CCOC(=O)CC[C@H](NC(=O)c1ccc(S(=O)(=O)Nc2ccc3nc(N)[nH]c(=O)c3c2)cc1)C(=O)OCC	2.4 (≈ 1.31 µg/mL)
O=C(Nc1nc(-c2ccccn2)cs1)c1cc2c(s1)CCCCC2	3.1 (≈ 1.1 µg/mL)
N#Cc1nc(-c2ccccc2)oc1S(=O)(=O)c1ccc(Cl)cc1	3.6 (≈ 1.24 µg/mL)
COc1ccc(-c2ccc(Nc3cccc(S(=O)(=O)CCNCC(C)(C)C)c3)nc2)cn1	2.9 (≈ 1.32 µg/mL)
O=C(Nc1nnc(SCc2ccc(Cl)cc2)s1)c1ccccn1	4 (≈ 1.45 µg/mL)
c1cncc(NCc2ccc(-c3cc4ccncc4cc3OC3CCNCC3)s2)c1	8.3 (≈ 3.46 µg/mL)
COCCCNCCOc1ccc2ccccc2c1Br	6.8 (≈ 2.3 µg/mL)
CCC(C)CC(=O)Nc1nc2c(s1)C(=O)CC(C(=O)N(C)Cc1cccc3ncccc13)C2 (stereo not drawn)	0.3 (≈ 0.139 µg/mL)
CC(C)n1cc(CN2CCCC(C(=O)c3ccc(-c4ccccc4)cc3)C2)cn1 (stereo not drawn)	8.9 (≈ 3.45 µg/mL)
CC1(C(=O)Nc2cccc3cccnc23)CCN1CC1CC1 (stereo not drawn)	4.6 (≈ 1.36 µg/mL)
O=C(Nc1nc(-c2ccccn2)cs1)c1ccc(Br)o1	3.5 (≈ 1.23 µg/mL)
O=C(NC12CC3CC(CC(C3)C1)C2)c1cc2ccccc2[nH]1	2.5 (≈ 0.736 µg/mL)
Cc1ccc(C(=O)N2N=C(C(F)(F)F)CC2(O)c2ccncc2)cc1 (stereo not drawn)	4.4 (≈ 1.54 µg/mL)
Clc1ccc(OCc2noc(CC3CCN(CCOCc4ccccc4)C3)n2)cc1 (stereo not drawn)	6 (≈ 2.57 µg/mL)
COc1ccc(-c2cnc(Nc3cccc(S(=O)(=O)CCN4CCc5ccccc5C4)c3)nc2)cn1	5.7 (≈ 2.86 µg/mL)
c1ccc(-c2nc(N3CCCCCC3)nc(-n3ccnc3)n2)cc1	9.6 (≈ 3.08 µg/mL)
N#Cc1nc(-c2cccs2)oc1S(=O)(=O)c1ccc(Br)cc1	2.9 (≈ 1.15 µg/mL)

Structure (SMILES)	MIC90 [µM]
O=C(NNC(=O)c1[nH]nc2ccccc12)c1ccco1	8.3 (≈ 2.24 µg/mL)
CC1CCC(NC(=O)Nc2ccc3snnc3c2)CC1 (stereo not drawn)	7 (≈ 2.03 µg/mL)
CCCn1nc(C(=O)N2CCN(c3ccccc3F)CC2)c2ccccc2c1=O	8.7 (≈ 3.43 µg/mL)
CCOc1ccccc1NC(=O)[C@H](Cc1ccccc1)NC(=O)c1cccs1	9.5 (≈ 3.75 µg/mL)
c1ccc(Cc2nnc(Sc3ccnc(N4CCN(c5ccncc5)CC4)n3)n2CCCN2CCOCC2)cc1	2.7 (≈ 1.51 µg/mL)
Cc1cc(Oc2cccc3[nH]ccc23)nc(N2CCNCC2)n1	6.2 (≈ 1.92 µg/mL)
O=C(c1cccc(-c2noc(-c3ccccc3)n2)c1)N1CCCCC1CCO (stereo not drawn)	0.9 (≈ 0.34 µg/mL)
O=C(Nc1nc(-c2ccccn2)cs1)C1COc2ccccc2O1 (stereo not drawn)	3.7 (≈ 1.26 µg/mL)
CCc1ccc(S(=O)(=O)Nc2cc(CN3CCN(CCC(C)C)CC3)ccc2C)cc1.O=C(O)C(F)(F)F.O=C(O)C(F)(F)F	6.3
CN(C)c1cc(C(=O)NCC2CCCCC2)ccc1NC(=O)OCc1ccccc1	5.6 (≈ 2.29 µg/mL)
Brc1ccc(-c2noc(C3CCCNC3)n2)cc1 (stereo not drawn)	6.2 (≈ 1.91 µg/mL)
Cc1cc(C)n(Cc2ccc(C(=O)NC3CCC(C(C)(C)C)CC3)cc2)n1 (stereo not drawn)	6.5 (≈ 2.39 µg/mL)
O=C(C=Cc1cccs1)N1CCN(Cc2ccc3c(c2)OCO3)CC1	1.7 (≈ 0.606 µg/mL)
O=C(CCc1cccs1)Nc1nc(-c2ccccn2)cs1	6.4 (≈ 2.02 µg/mL)
CNc1nc(SC)nc2ccccc12	0.3 (≈ 0.0616 µg/mL)
CCc1ccc(CN2CCC3(CC2)OCCc2sccc23)s1	0.5 (≈ 0.167 µg/mL)
CCN(CC)c1ccc(-c2nn3c(-c4n[nH]c5c4CCC5)nnc3s2)cc1	7 (≈ 2.66 µg/mL)
Cn1cc(C(=O)NCCc2ccccc2)c(=O)c2cc(S(=O)(=O)N3CCCC3)ccc21	4.6 (≈ 2.02 µg/mL)
O=S(=O)(c1ccc(Cl)cc1)N1CCC(n2nnc3cc(C(F)(F)F)ccc32)CC1	7.8 (≈ 3.47 µg/mL)
CC(C)c1ccc(NC(=O)c2ccc(C(=O)NC3CCCNC3)cc2)cc1 (stereo not drawn)	6.2 (≈ 2.27 µg/mL)
FC(F)(F)c1ccc2c(N3CCNCC3)ncc(-c3ccsc3)c2n1	9.4 (≈ 3.43 µg/mL)
CC(C)n1ncc2c(C(=O)NCC(c3cccs3)N3CCOCC3)cc(-c3ccccc3)nc21 (stereo not drawn)	2.5 (≈ 1.19 µg/mL)
CSc1ccc(C(=O)Nc2nc(-c3ccccn3)cs2)cc1	4.4 (≈ 1.44 µg/mL)

Structure (SMILES)	MIC90 [µM]
CCCNc1cc(-c2ccccc2)nc(-n2nc(C)cc2C)n1	5 (≈ 1.54 µg/mL)
Cc1ncc(C(=O)Nc2cccc(-c3cc(-c4c(Cl)cccc4Cl)no3)c2)c(-c2ccccc2)n1	1.2 (≈ 0.602 µg/mL)
COc1ccc2nc(C)cc(OCC(=O)Nc3cc(C)cc(C)c3)c2c1	0.5 (≈ 0.175 µg/mL)
COc1ccc(N2CCN(c3ccc(C#N)cc3C(F)(F)F)CC2)c(OC)c1	3.7 (≈ 1.45 µg/mL)
Clc1cc(N2CCNCC2)cc(Cl)c1OCc1ccccc1	2.2 (≈ 0.742 µg/mL)
O=C(Nc1nnc(-c2ccc(Br)cc2)o1)c1cccc(C(F)(F)F)c1	1.5 (≈ 0.618 µg/mL)
Cc1ccc2nc(C)c(C(=O)NCC(C)C)n2c1	4.8 (≈ 1.18 µg/mL)
O=C(Nc1nc(-c2ccccn2)cs1)c1ccc2c(c1)OCO2	3 (≈ 0.976 µg/mL)
Br.CC1(C)NC(N)=NC(=N)N1OCCCOc1ccc(Cl)cc1Cl	4.5
Cc1ccc(-c2nnc(NC(=O)c3cccc(C(F)(F)F)c3)o2)c(C)c1	4.4 (≈ 1.59 µg/mL)
O=C(Nc1nc(-c2ccccn2)cs1)c1ccc(-n2cccn2)cc1	0.7 (≈ 0.243 µg/mL)
N=C(Nc1nc(-c2ccccn2)cc2ccccc12)c1cccc(Cl)c1	0.6 (≈ 0.215 µg/mL)
CC(C)OC(=O)COc1ccc(-c2cnc(N(C)CCc3ccncc3)nc2)cc1	8.5 (≈ 3.46 µg/mL)
Cn1cc(-c2noc(/C=C3/CCN4CCCC[C@@H]4C3)n2)c2ccccc21	7.3 (≈ 2.54 µg/mL)
CNc1nc(SCC(=O)N(C)Cc2ccc(Cl)s2)nc2ccccc12	8.9 (≈ 3.5 µg/mL)
c1ccc2c(Cc3nnc(Sc4ccnc(N5CCN(c6ccncc6)CC5)n4)n3CCN3CCOCC3)c[nH]c2c1	2.8 (≈ 1.63 µg/mL)
CNC(=O)c1cc(Nc2ncc(F)c(N(C)c3ccc4c(C)[nH]nc4c3)n2)cc(OCCCN)c1	7.9 (≈ 3.78 µg/mL)
CSc1ncc(C(=O)Nc2nc(-c3ccc(Cl)cc3)cs2)cn1	3.3 (≈ 1.2 µg/mL)
Cc1cccc(-c2noc(CNC(=O)c3ccccc3CCc3ccccc3)n2)c1	6.1 (≈ 2.42 µg/mL)
Cn1nc(C(=O)N2CCc3sccc3C2c2cccs2)c2ccccc2c1=O (stereo not drawn)	4.6 (≈ 1.87 µg/mL)
Cc1ccc(-n2cc3c(-c4ccc(Cl)cc4)nnc(C)c3n2)cc1	5.7 (≈ 1.91 µg/mL)
c1ccc(Cc2nnc(Sc3ccnc(N4CCN(c5ccncc5)CC4)n3)n2CCN2CCOCC2)cc1	9.9 (≈ 5.38 µg/mL)
CC(C)(C)c1ccc(-c2nnc(SCC(=O)OC3CCCCC3)o2)cc1	8.1 (≈ 3.03 µg/mL)

Structure (SMILES)	MIC90 [µM]
CN(C)c1ccc(NC(=O)Nc2cccc3ncccc23)cc1	9.8 (≈ 3 µg/mL)
Cc1nc2c(C)cccn2c1C(=O)NCc1ccc2c(c1)OCO2	9.5 (≈ 3.07 µg/mL)
COc1ccc(CCNc2nccc(-c3cccc(OC4CCNCC4)c3)n2)cc1	4.4 (≈ 1.78 µg/mL)
CC(Sc1nc2ccccc2[nH]1)C(=O)NNC(=O)c1ccncc1 (stereo not drawn)	1.6 (≈ 0.546 µg/mL)
Cc1cc2c(NC(=O)NC3CCN(c4ccc(C(F)(F)F)cn4)CC3)cccc2c(C)n1	3.1 (≈ 1.37 µg/mL)
O=C(CSc1nc(-c2ccccc2)cs1)NNC(=O)c1cccs1	9.8 (≈ 3.68 µg/mL)
O=C(Nc1nc(-c2ccccn2)cs1)c1ccc(Oc2ccccc2)cc1	7 (≈ 2.61 µg/mL)
CCSc1cccc(C(=O)Nc2nnc(-c3ccc(C)cc3C)o2)c1	5.2 (≈ 1.84 µg/mL)
CC(c1nc2ccccc2s1)N(C)C(=O)c1cccc(NC(=O)c2cccs2)c1 (stereo not drawn)	0.3 (≈ 0.126 µg/mL)
CCc1ccc(C2CC(C(F)(F)F)n3ncc(C(=O)NCc4ccc5c(c4)OCO5)c3N2)cc1 (stereo not drawn)	4.8 (≈ 2.27 µg/mL)
COc1cccc(C(=O)Nc2nc(-c3ccccn3)cs2)c1	7.6 (≈ 2.37 µg/mL)
COCc1nc(N2CCCNCC2)c2c(C)nn(-c3cccc(Cl)c3)c2n1	0.4 (≈ 0.155 µg/mL)
C[C@@H](NCCc1nc(-c2cn(C)c3ccccc23)no1)C1CCCCC1.Cl	9.4
CN(Cc1nc2ccccc2s1)C(=O)c1cccc(NC(=O)c2ccncc2)c1	1.7 (≈ 0.684 µg/mL)
O=c1cc(N2CCCNCC2)c(Cl)nn1CCCNS(=O)(=O)c1ccc(-c2ccccc2)cc1	4.6 (≈ 2.31 µg/mL)
Br.CCc1ccccc1OCCCON1C(=N)N=C(N)NC1(C)C	2.8
Cc1ccc(NC(=O)c2cccc(Cl)c2F)cc1-c1ccc(C(N)=O)cc1	9.5 (≈ 3.64 µg/mL)
Fc1ccccc1-c1noc(N2CCN(Cc3ccc4c(c3)OCO4)CC2)n1	6.7 (≈ 2.56 µg/mL)
Cc1ccc(C(=O)Nc2nc(-c3ccccn3)cs2)s1	3.7 (≈ 1.12 µg/mL)
CCc1ccc(Nc2nnc(SCc3cc(C)on3)s2)cc1	7.4 (≈ 2.46 µg/mL)
NC(=O)c1ccc(-c2cccc(OCCNCCc3cccc(F)c3)c2)cc1	3.1 (≈ 1.17 µg/mL)
O=C(CCCOc1ccccc1)Nc1nc(-c2ccccn2)cs1	5.4 (≈ 1.83 µg/mL)
Fc1cccc(Sc2nccc(N3CCNCC3)n2)c1	6 (≈ 1.74 µg/mL)

Structure (SMILES)	MIC90 [µM]
c1ccc2c(Cc3nnc(Sc4ccnc(N5CCN(c6ccncc6)CC5)n4)n3CCCN3CCOCC3)c[nH]c2c1	2.2 (≈ 1.31 µg/mL)
COc1ccc2sc(Nc3nc(-c4ccccn4)cs3)nc2c1	3.5 (≈ 1.19 µg/mL)
Brc1ccc2cc(C3=NCCCO3)[nH]c2c1	7.1 (≈ 1.98 µg/mL)
Cc1ccc(SCCNC(=O)c2c(-c3ccccc3)noc2C)cc1	8.7 (≈ 3.07 µg/mL)
Br.Cc1cc(C)cc(OCCCON2C(=N)N=C(N)NC2(C)C)c1	7
COc1cc(Nc2ccccc2)ccc1NS(=O)(=O)c1c(C)noc1C	2.9 (≈ 1.08 µg/mL)
COc1ccc(O)c(C(=O)c2cnn(C(=O)c3cccs3)c2)c1	1.8 (≈ 0.591 µg/mL)
O=C(CSc1ccc(Cl)cc1)NNC(=O)c1ccncc1	8.1 (≈ 2.61 µg/mL)
Cc1csc2nc(-c3ccccn3)nc(Nc3ccncn3)c12.O=C(O)C(F)(F)F	1.3
O=C(Nc1nc(-c2ccccn2)cs1)c1cc2ccccc2o1	7 (≈ 2.25 µg/mL)
Clc1ccc(-c2ccc3c(c2)CC(NCc2ccc(-n4cncn4)cc2)C3)cc1 (stereo not drawn)	6.7 (≈ 2.69 µg/mL)
CN1CCN(c2ccc(C(F)(F)F)cc2NC(=O)c2ccccn2)CC1	7.2 (≈ 2.62 µg/mL)
O=C(Cc1ccc(Cl)c(Cl)c1)Nc1nc(-c2ccccn2)cs1	3.2 (≈ 1.17 µg/mL)
COc1cc(C(F)(F)F)nc2ccc(C)c(N)c12	9.7 (≈ 2.49 µg/mL)
Cc1cc2ncn(-c3nccc(N4CCN(Cc5ccncc5)CC4)n3)c2cc1C	2.8 (≈ 1.12 µg/mL)
Cc1nc2ccccn2c1C(=O)NCc1ccc2c(c1)OCO2	3 (≈ 0.928 µg/mL)
CCCc1ccc(NC(=O)c2ccc(CN3CCN(Cc4ccsc4)CC3)cc2)cc1	5.6 (≈ 2.43 µg/mL)
CC(C)c1ccc(-c2cncc(N3CCN(c4ccncc4)CC3)n2)cc1	5.1 (≈ 1.83 µg/mL)
CC(Oc1ccccc1)C(=O)Nc1nc(-c2ccccn2)cs1 (stereo not drawn)	5.4 (≈ 1.76 µg/mL)
CN(C)CCN(Cc1ccc(-c2cccc(CN)c2)cc1)C(=O)CCC1CCCC1	9.9 (≈ 4.04 µg/mL)
O=C(Nc1ccc(N2CCNCC2)cc1)c1ccn2ncc(-c3cccc(Cl)c3)c2n1	8.5 (≈ 3.68 µg/mL)
